Data from US7407984B2, “Tetraoxaspriro anti-malarials” (Okayama University, priority 2002, dated 2008).
Converted amounts (≈) assume the structure as drawn. Where two headings read alike, the source gives them in different places.

Tests used:
[1] = physchem
Text: As to 6-(1,2,6,7-tetraoxaspiro[7.11]nonadecy-4-yl)hexane-1-ole (N251), 5-(1,2,6,7-tetraoxaspiro[7.11]nonadecy-4-yl)pentane-1-carboxylic acid (N251-1), succinic acid mono-[6-(1,2,6,7-tetraoxaspiro[7.11]nonadecy-4-yl)hexyl]ester (N251-2), all obtained in Example 9, and 1,2,6,7-tetraoxaspiro[7.11]nonadecane (N89), artemisinin, artesunate (trade name: Guilin No. 2, Pharmaceutical Factory, Guangxi, China) as comparative examples, solubility to 5% of sodium bicarbonate water and dimethylsulfoxide (DMSO) was measured.

[2] = tested on: P. falciparum FCR-3 strain (ATCC30932); assay: Growth inhibition screening test of P. falciparum (FCR-3 strain); assay type: cell-based; conditions: read-out: EC50 (M) P. falciparum FCR-3
Procedure: (§1) A filter-sterilized RPMI1640 medium (pH 7.4) was added with human serum such that the serum made up 10% of the medium, and used in the experiment. P. falciparum were cultured in O2 at a concentration of 5%, CO2 at a concentration of 5% and N2 at a concentration of 90%, at a temperature of 36.5° C. Hematocrit value (ratio of volume of erythrocytes in erythrocyte suspension) was adjusted to be 5%, and initial infection rate of P. falciparum at the beginning of culture was adjusted to be 0.1%. A 24-well plate was used for culture and a medium was replaced everyday, and cultures were transferred at infection rate of 4%. A thin-layer smear was constructed and subjected to Giemsa staining or Diff-Qick staining, and followed by measurement under a microscope (oil immersion, 1000×), and then infection rate of P. falciparum was calculated according to the following formula. Infection rate of P. falciparum (%)={(number of infected erythrocytes)/(total number of erythrocytes)}×100 […]
(§2) Cultured erythrocytes infected with P. falciparum were gathered by centrifugation and washed with a medium containing serum, then noninfected erythrocytes were added, and initial infection rate was adjusted to be 0.3%. Hematocrit value in this case was 3%. […] These samples were dissolved into sterilized water, dimethylformamide (DMF) or dimethylsulfoxide (DMSO), and sample solutions at prescribed concentration were prepared. 5 to 10 μl each of the sample solutions was added to a 24-well culture plate. For each sample, 2 to 3 experiments were conducted. In addition, for control, sterilized water, DMF or DMSO was added by 10 μl/well. […] The culture plate was put into a CO2—O2—N2 (5%, 5%, 90%) incubator and culture was conducted for 72 hours, then a thin-layer smear was constructed for each well, Giemsa staining or Diff-Qick staining was conducted, followed by measurement under a microscope (oil immersion, 1000×), and then infection rates of P. falciparum in a group supplemented with a reagent and in controls were calculated. The growth rate was calculated according to the following formula based on the infection rate of P. falciparum as calculated above. Growth rate (%)={([b]−[a])/([c]−[a])}×100 […]
(§3) a: initial infection rate b: infection rate when sample solution added c: infection rate of a control
(§4) EC50 is a value expressed by molar concentration: when growth rate of control wherein sample solution is not added to a medium of P. falciparum is defined as 100%, EC50 indicates a concentration of a sample wherein infection rate of P. falciparum in control is inhibited by 50% due to the addition of sample solution.

[3] = tested on: chloroquine-resistant malaria parasite of P. falciparum K-1 strain; assay: Growth inhibition screening test of chloroquine-resistant P. falciparum (K-1 strain); assay type: cell-based; conditions: read-out: EC50 (M) Chloroquine-resistant P. falciparum K1
Procedure: as §1, §2, §3, §4

[4] = tested on: mouse breast cancer-derived FM3A cells (F28-7 strain); assay: Growth inhibition test of mouse FM3A cells; assay type: cell-based; conditions: read-out: IC50 (M) Cancer cells of mice FM3A
Procedure: An F28-7 strain, a wild-type strain of mouse breast cancer-derived FM3A cells, was used. Immobilized fetal bovine serum was added to an ES medium such that the serum made up 2% of the medium, and culture was conducted in CO2 at a concentration of 5%, and at 37° C. […] Cells which had been precultured and entered to logarithmic growth phase were diluted to be 5×10^4 cells/ml in the medium. A sample prepared at the time of the measurement of antimalarial activity of P. falciparum was used. […] For each test sample, 2 to 3 experiments were conducted, and wells added with 10 μl each of sterilized water, DMF and DMSO were tested at the same time as controls. Next, a prepared suspension of cultured cells was added, by 990 to 995 μl each, and when medium and the like were added, the final concentration of test samples became 1×10^−4 to 1×10^−6M. By pipetting gently, these substances were uniformly suspended in media.
Based on the counted number of cells, growth rate was calculated by the following formula. Growth rate (%)={([C]−[A])/([B]−[A])}×100
A: the number of cells at the beginning
B: the number of cells in a control after 48 hours
C: the number of cells 48 hours after sample addition
Based on the calculated growth rate, IC50, cell growth inhibitory concentration, was calculated, and cytotoxicity of samples was evaluated as cell growth inhibitory activity.

[5] = tested on: P. falciparum versus mouse FM3A cells; assay: Assessment of drug efficacy (chemotherapeutic coefficient, selective toxicity against P. falciparum); assay type: cell-based; conditions: IC50 for mouse FM3A cells ÷ EC50 for P. falciparum (values fit FCR-3)
Procedure: Evaluation of antimalarial activity of samples was conducted on the basis of chemotherapeutic coefficient used as an index of selective toxicity against P. falciparum. Chemotherapeutic coefficient was calculated by the following formula as a ratio of EC50 value of each sample used for P. falciparum to IC50 value of each sample used for mouse FM3A cells, and drug efficacy was assessed based on the calculated values.
Chemotherapeutic coefficient=(IC50 value of the sample for mouse […] cells)÷(EC50 value of the sample for P. falciparum)

[6] = tested on: murine malaria parasites (P. berghei NK65 strain); assay: Parasite suppression test using mice infected with murine malaria parasite (4-day suppressive test); assay type: in vivo; conditions: for ED50 / cure of infected mice / ED90: mice infected with P. berghei NK65; for ED50 / ED90: once a day for 4 days, orally or intraperitoneally in olive oil; for ED50: 50% of parasites suppressed; for cure of infected mice: N251 and N89: with 50 mg/kg; for ED90: 90% of parasites suppressed
[7] = Plasmodium falciparum, FCR-3 strain, 72 hours culture, infection rate by Giemsa or Diff-Qick staining
[8] = Plasmodium falciparum, K1 chloroquine-resistant strain, 72 hours culture
[9] = Mus musculus, FM3A cells, 48 hours culture, cell count, cytotoxicity
[10] = Plasmodium berghei, 96 h, read-out: ED50

In the case of `C[C@@H]1CC[C@H]2[C@@H](C)C(=O)O[C@@H]3O[C@@]4(C)CC[C@@H]1[C@]32OO4` [Artemisinin, artemisinin], the “solubility to DMSO” value [1] is reported as “insoluble”, the EC50 [2, 7] is reported as 1e-08 M and the EC50 [3, 8] is reported as 1.3e-08 M. For the same compound, the IC50 [4, 9] was 1e-05 M, the “IC50/EC50 Chemotherapeutic coefficient” value [5] was 1000 and the ED50 [6, 10] was 6 mg/kg. The “cure of infected mice” value [6] was “Not cured” and the “ED90” value [6] was 10.3 mg/kg.

For `CCN(CC)CCCC(C)Nc1ccnc2cc(Cl)ccc12` (centres unmarked) [Chloroquine, chloroquine], the EC50 ([2]; Plasmodium falciparum, 72 h) was 1.8e-08 M, the EC50 ([3]; Plasmodium falciparum, K1, 72 h) was 1.3e-07 M and the IC50 ([4]; Mus musculus, FM3A, 48 h) was 3.2e-05 M.

In the case of `C1CCCCCC2(CCCCC1)OOCCCOO2` [N89, 1,2,6,7-tetraoxaspiro[7.11]nonadecane], the “solubility to DMSO” value [1] is reported as “insoluble”, the EC50 [2, 7] is reported as 2.5e-08 M and the EC50 [3, 8] is reported as 2.6e-08 M. For the same compound, the IC50 [4, 9] was 8.2e-06 M, the “IC50/EC50 Chemotherapeutic coefficient” value [5] was 328 and the ED50 [6, 10] was 12 mg/kg. The “cure of infected mice” value [6] was “All cured” and the “ED90” value [6] was 20 mg/kg.

In the case of `OCCCCCCC1COOC2(CCCCCCCCCCC2)OOC1` [N251, 6-(1,2,6,7-tetraoxaspiro[7.11]nonadecy-4-yl)hexane-1-ole], the “solubility to DMSO” value [1] is reported as “insoluble”, the EC50 ([2]; FCR-3 strain, 72 hours culture, infection rate by Giemsa or Diff-Qick staining) is reported as 2.3e-08 M and the EC50 ([3]; K1 chloroquine-resistant strain, 72 hours culture) is reported as 2e-08 M. For the same compound, the IC50 ([4]; FM3A cells, 48 hours culture, cell count, cytotoxicity) was 8e-06 M, the “IC50/EC50 Chemotherapeutic coefficient” value [5] was 348 and the “ED50 (mg/kg) on N89 basis” value ([6]; ED50 of N251 converted to N89 basis (molar comparison)) was “[<7 on N89 basis] mg/kg”. The “ED90 (mg/kg) on N89 basis” value ([6]; ED90 of N251 converted to N89 basis (molar comparison)) was “[13 on N89 basis] mg/kg”, the “cure of infected mice” value [6] was “All cured” and the “ED50” value [6] was <10 mg/kg. The “ED90” value [6] was 18 mg/kg.

With `O=C(O)CCCCCC1COOC2(CCCCCCCCCCC2)OOC1` [N251-1, 5-(1,2,6,7-tetraoxaspiro[7.11]nonadecy-4-yl)pentane-1-carboxylic acid] the “solubility to 5% of sodium bicarbonate water” value ([1]; 5% of sodium bicarbonate water) was 50 mg/mL.

With `O=C(O)CCC(=O)OCCCCCCC1COOC2(CCCCCCCCCCC2)OOC1` [N251-2, succinic acid mono-[6-(1,2,6,7-tetraoxaspiro[7.11]nonadecy-4-yl)hexyl]ester] the “solubility to 5% of sodium bicarbonate water” value [1] was 100 mg/mL.

In the case of `C[C@H]1[C@H](OC(=O)CCC(=O)O)O[C@@H]2O[C@@]3(C)CC[C@H]4[C@H](C)CC[C@@H]1[C@@]24OO3` [artesunate], the solubility ([1]; aqueous buffer) is reported as 100 mg/mL (≈ 260 mM).
